This is an account of results in ChEMBL document CHEMBL3045746, “Efficacy of Lawsonia inermis leaves extract and its phenolic compounds against olive knot and crown gall diseases” (2013).

The test system of the assay is Agrobacterium tumefaciens. As to the kind of experiment: Antibacterial activity against Agrobacterium tumefaciens str. B6 assessed as growth inhibition after 48 hr by INT staining. To be noted: str. B6, 48 h. Format: functional.

SMILES strings stand for the structures. Converted amounts (≈) assume the structure as drawn.

As to `CC(=O)c1c(O)cc(O)c(O)c1O[C@@H]1O[C@H](CO)[C@@H](O)[C@H](O)[C@H]1O` [LALIOSIDE], the MIC amounted to 30 µg/mL (≈ 86.6 µM).

One may read the MIC as the smallest concentration in the dilution series that meets the test's criterion for growth inhibition.
